Assay results published in patent US20230250070A1, “DIHYDROOXAZOLE AND THIOUREA DERIVATIVES MODULATING THE NLRP3 INFLAMMASOME PATHWAY” (AC IMMUNE SA, priority 2020, published 2023).

Columns and labels:
[1] = test system: NLRP3 inflammasome pathway; experiment: NLRP3 inflammasome pathway activation assay, Nigericin stimulation, IL-1β release (AlphaLISA); type: cell-based; conditions: PMA-differentiated, LPS-primed human monocyte-like cells, Nigericin 3.75 µM for 3 h
Description: (§1) The following assays were used to determine the inhibitory activity of test compounds on the NLRP3 inflammasome pathway using common stimuli Nigericin (Invivogen) or monosodium urate crystals (MSU) (Invivogen).
(§2) Human monocyte-like cells were cultured in RPMI-1640 Glutamax medium supplemented with 10% heat inactivated FCS and 50 U/ml penicillin-streptomycin (Life Technologies).
(§3) Human monocyte-like cells were seeded at 75000 per well in a 96-well plate and were differentiated overnight into macrophages with 10 ng/ml PMA (Phorbol Myristate Acetate). The following day, medium containing 10 ng/ml LPS (Lipopolysaccharide) were added. After 3 hours of LPS priming, concentrations of test compound in the range from 100 µM to 6 nM were added 30 min prior to NLRP3 inflammasome pathway stimulation with Nigericin 3.75 µM or MSU 150 µg/ml for 3 h.
(§4) For IL-1β quantification, supernatants were analyzed using AlphaLISA kits according to the manufacturer’s instructions (Perkin Elmer AlphaLISA AL220F). Briefly, in a 384-well OptiPlate™ microplate, 5 µl of sample was mixed, with 20 µl of AlphaLISA Anti-Analyte Acceptor beads (10 µg/mL final) and Biotinylated Antibody Anti-Analyte (1 nM final). Then, incubated 60 minutes at RT, then 25 µL of 2X SA-Donor beads (40 µg/mL final) were added and incubated 30 minutes at RT in the dark. Reading was done using an EnVision-Alpha Reader (PerkinElmer).
(§5) IC50(concentration corresponding to 50% inhibition) were determined using GraphPad Prism 8.

[2] = test system: NLRP3 inflammasome pathway; experiment: NLRP3 inflammasome pathway activation assay, MSU stimulation, IL-1β release (AlphaLISA); type: cell-based; conditions: PMA-differentiated, LPS-primed human monocyte-like cells, MSU 150 µg/ml for 3 h
Description: as §1, §2, §3, §4, §5

2-((1,2,3,5,6,7-hexahydro-s-indacen-4-yl)amino)-5-(5-isopropylisoxazol-3-yl)-4,5-dihydrooxazole-5-carboxylate [Example 28]
IC50 [1]: 1 to 10 µM | IC50 [2]: < 1 µM

CCOC(=O)C1(c2ccccc2)CN=C(Nc2c3c(cc4c2CCC4)CCC3)O1 (racemic) [Example 1, Ethyl 2-((1,2,3,5,6,7-hexahydro-s-indacen-4-yl)amino)-5-phenyl-4,5-dihydrooxazole-5-carboxylate]
IC50 ([1]; Homo sapiens, 3 h): < 1 µM | IC50 [2]: < 1 µM

CCOC(=O)C1(c2ccccn2)CN=C(Nc2c3c(cc4c2CCC4)CCC3)O1 (racemic) [Example 8, Ethyl 2-((1,2,3,5,6,7-hexahydro-s-indacen-4-yl)amino)-5-(pyridin-2-yl)-4,5-dihydrooxazole-5-carboxylate]
IC50 ([1]; Homo sapiens, 3 h): < 1 µM | IC50 [2]: < 1 µM

CCOC(=O)C1(c2ccc(Cl)cc2)CN=C(Nc2c3c(cc4c2CCC4)CCC3)O1 (racemic) [Example 10, Ethyl 5-(4-chlorophenyl)-2-((1,2,3,5,6,7-hexahydro-s-indacene-4-yl)amino)-4,5-dihydrooxazole-5-carboxylate]
IC50 ([1]; Homo sapiens, 3 h): 1 to 10 µM | IC50 [2]: 1 to 10 µM

CCOC(=O)C(O)(CNC(=S)Nc1c2c(cc3c1CCC3)CCC2)c1cc(C(C)(C)O)on1 (racemic) [Example 14, Ethyl 3-(3-(1,2,3,5,6,7-hexahydro-s-indacen-4-yl)thioureido)-2-hydroxy-2-(5-(2-hydroxypropan-2-yl)isoxazol-3-yl)propanoate]
IC50 [1]: < 1 µM | IC50 [2]: < 1 µM

CCOC(=O)C1(c2ccccc2)CN=C(Nc2c3c(c(F)c4c2CCC4)CCC3)O1 (racemic) [Example 30, ethyl 2-((8-fluoro-1,2,3,5,6,7-hexahydro-s-indacen-4-yl)amino)-5-phenyl-4,5-dihydrooxazole-5-carboxylate]
IC50 ([1]; Homo sapiens, 3 h): 1 to 10 µM | IC50 [2]: < 1 µM

CCOC(=O)C1(c2ncccn2)CN=C(Nc2c3c(cc4c2CCC4)CCC3)O1 (racemic) [Example 50, ethyl 2-((1,2,3,5,6,7-hexahydro-s-indacen-4-yl)amino)-5-(pyrimidin-2-yl)-4,5-dihydrooxazole-5-carboxylate]
IC50 ([1]; Homo sapiens, 3 h): < 1 µM | IC50 [2]: 1 to 10 µM

CCOC(=O)C1(c2cc(C(C)(C)O)on2)OC(Nc2c3c(cc4c2CCC4)CCC3)=NC1C (racemic) [Example 52, ethyl 2-((1,2,3,5,6,7-hexahydro-s-indacen-4-yl)amino)-5-(5-(2-hydroxypropan-2-yl)isoxazol-3-yl)-4-methyl-4,5-dihydrooxazole-5-carboxylate]
IC50 ([1]; Homo sapiens, 3 h): < 1 µM | IC50 [2]: 1 to 10 µM

O=C(O)C1(c2ccccn2)CN=C(Nc2c3c(cc4c2CCC4)CCC3)O1 (stereo not drawn) [Example 25, 2-((1,2,3,5,6,7-hexahydro-s-indacen-4-yl)amino)-5-(pyridin-2-yl)-4,5-dihydrooxazole-5-carboxylic acid]
IC50 [2]: 1 to 10 µM

O=C(O)C1(c2cccnc2)CN=C(Nc2c3c(cc4c2CCC4)CCC3)O1 (stereo not drawn) [Example 26, 2-((1,2,3,5,6,7-hexahydro-s-indacen-4-yl)amino)-5-(pyridin-3-yl)-4,5-dihydrooxazole-5-carboxylic acid]
IC50 [2]: 1 to 10 µM

CCOC(=O)C1(c2cc(C(C)(C)O)on2)OC(Nc2c3c(cc4c2CCC4)CCC3)=NC1CC (stereo not drawn) [Example 51, ethyl 4-ethyl-2-((1,2,3,5,6,7-hexahydro-s-indacen-4-yl)amino)-5-(5-(2-hydroxypropan-2-yl)isoxazol-3-yl)-4,5-dihydrooxazole-5-carboxylate]
IC50 [2]: 1 to 10 µM

CC(C)OC(=O)C1(c2ccon2)CN=C(Nc2c3c(cc4c2CCC4)CCC3)O1 (stereo not drawn) [Example 56, Isopropyl 2-((1,2,3,5,6,7-hexahydro-s-indacen-4-vl)amino)-5-(isoxazol-3-yl)-4,5-dihvdrooxazole-5-carboxylate]
IC50 [2]: < 1 µM

O=C(OC1CCCC1)C1(c2ccon2)CN=C(Nc2c3c(cc4c2CCC4)CCC3)O1 (stereo not drawn) [Example 57, Cyclopentyl 2-((1,2,3,5,6,7-hexahvdro-s-indacen-4-vl)amino)-5-(isoxazol-3-vl)-4,5-dihvdrooxazole-5-carboxylate]
IC50 [2]: < 1 µM
